According to patent EP2714063B1, “VEGFR2/3-ACTIVATING AGENT FOR USE IN THE TREATMENT OF COGNITIVE DYSFUNCTIONS” (priority 2011, dated 2012):

Columns and labels:
[1] = system: VEGFD; type: cell-based, C57BL/6 mice; conditions: treatment from DIV5 to DIV10; 1 µM TTX, 10 µM MK801, 10 µM nifedipine
Experimental: RNA extraction and cDNA synthesis. Total RNA was isolated at DIV10 to DIV13 from hippocampal primary neuron cultures or isolated brain tissues with Rneasy Mini Kit (Qiagen, Hilden, Germany) including an optional Dnase I treatment at room temperature for 15 min according to manufacturer's instructions (Qiagen). 1.2 µg of extracted RNA was reverse transcribed into first strand cDNA using High Capacity cDNA Reverse Transcription kit (Applied Biosystems, Foster City, CA).
Real time quantitative PCR. Quantitative reverse transcriptase PCR (qRT-PCR) was done on an ABI7300 thermal cycler using Universal qRT-PCR master mix with TaqMan Gene Expression Assays for the indicated genes (Applied Biosystems). The following TaqMan Gene Expression Assays were used in this study: Gusb (Mm00446953_m1), cFos (Mm00487425_m1), VEGFD (Mm00438965_m1), VEGFC (Mm01202432_m1), VEGF (Mm01281449_m1), VEGFR3 (Mm01292618_m1), beta-actin (Mm00607939_s1), beta-2 microglobulin (Mm00437762_m1), CBP (Mm01342435_m1), p38 MAPK alpha (Mm00442497_m1), p38 MAPK beta (Mm00440955_m1). Expression of target genes was normalized against the expression of Gusb as endogenous control gene. Data were derived from at least 5 independent experiments.

[2] = system: hippocampal neurons; assay: Morphometric analyses (total dendritic length, Sholl analysis, spine density) of cultured neurons; type: cell-based, C57BL/6 mice
Experimental: Hippocampal cultures and transfection. Hippocampal neurons from newborn C57BL/6 mice were cultured as known in the art. Experiments were done after a culturing period of 10 to 14 days in vitro (DIV). DNA transfection was done on DIV8 using Lipofectamine 2000 (Invitrogen, San Diego, CA). For the studies on dendrite morphology, neurons were analyzed 4-5 days after transfection.
Morphometric analyses. For 3D Sholl Analysis, total dendritic length and spine morphology were calculated using Object-Image freeware software with a specific set of macros (written by Dr. E. Ruthazer, McGill University, Quebec). Briefly, a z-Stack acquisition was imported, calibrated in Object-Image and manually traced. Total dendritic length was then computed. For Sholl analysis, the shell interval was set at 5 µm. All analyses were performed blind. In all in vitro experiments, for each condition, a minimum of 12 neurons from three independent preparations was analyzed. For the Golgi staining quantifications of 20 neurons for each condition from 4 different injected animals per viral construct were traced and analyzed.
Immunocytochemistry. […] For the morphometric analyses, fluorescence images were acquired using a confocal laser-scanning microscope TCS SP2 (Leica, Mannheim, Germany) equipped with an inverted fluorescence microscope DM IRE2 (Leica) and Leica confocal scan software. […]

Row | SMILES | VEGFD expression (mRNA) [1] | effect on the rVEGFD-induced rescue of dendrite length and complexity ([2]; neurons expressing CaMBP4 (and CaMKIVK75E), treated for 3 days with rVEGFD) | Sholl analysis ([2]; neurons expressing hrGFP, CaMBP4 or CaMKIVK75E, SB203580 without rVEGFD)
1 | C[C@]12N[C@H](Cc3ccccc31)c1ccccc12 [MK801] | significantly reduced the expression of VEGFD mRNA |  | 
2 | C[S+]([O-])c1ccc(-c2nc(-c3ccncc3)c(-c3ccc(F)cc3)[nH]2)cc1 (stereo not drawn) [SB203580] |  | severely compromised the ability of rVEGFD to rescue the impairment of dendrite length and complexity | no difference compared to the respective untreated controls
